Laboratory results: patent publication US20090018212A1, “METHODS OF RELIEVING STRESS” (Neuroscent Pty Ltd., priority 2005, published 2009)

How the values were obtained:
[1] = tested on: sympathetic neurotransmission; assay: Sympathetic neurotransmission in isolated vasa differentia after chronic stress of social deprivation and predator exposure; format: in vivo; conditions: mice, social deprivation and presence of predators 10 to 12 days; odour diluted in triethyl citrate
Experimental: The effects of odours on experimental animals exposed to stressors that cause chronic stress was assessed. Mice were divided into two groups, a control group exposed to minimal stress and a group exposed to severe stress by concurrent isolation and exposure to a predator. Each group was divided into sub-groups, one not exposed to any odour (control), one exposed to triethyl citrate vehicle (control), and the other groups exposed to an odour or a mixture of odours selected from cis-2-hexen-1-ol, trans-3-hexen-1-ol, trans-2-hexen-1-ol, cis-3-hexen-1-ol, trans-2-hexenal and α-pinene. Each odour compound was diluted (0.01 to 0.05% volume) with triethyl citrate. The solutions (0.5 mL) were placed on filter paper strips and placed within 30 cm of the animal cage. The response to stress was assessed using any or a combination of telemetry measurements, post-mortem electrophysiological studies and biochemical assays of blood samples.
Isolated vasa differentia were used to assess the effects of prolonged exposure to stress and its attenuation by odours. Following exposure of the mice to one of the stressors with or without odour, the level of neurotransmission from sympathetic varicosities was examined using standard focal extracellular recording methods (Lavidis and Bennett, 1992, 1993a, 1993b; D'Arbe et al., 2002). […] The extent of the increase reflects the level of stress the animal was exposed to during the previous 6-14 days (D'Arbe et al., 1999, D'Arbe et al., 2002).
Mice were exposed to two stressors concurrently, social deprivation and the presence of predators (rats in separate cages) for 10 to 12 days with or without the following odours or combination of odours, cis-2-hexen-1-ol, trans-2-hexen-1-ol, trans-3-hexen-1-ol, trans-2-hexenal, cis-3-hexen-1-ol, α-pinene and a combination of cis-3-hexen-1-ol and trans-2-hexenal. Two controls were used: mice not exposed to stress and mice exposed to stress together with triethyl citrate vehicle. The mice were monitored for up to 4 days after the stressors were removed.
Mice were placed in cages with one mouse per cage (social deprivation) in a room that contained cages with rats (predators) without odours (control). […] Box plots of the excitatory junction currents (EJC) obtained by electrophysiological methods are shown in FIG. 2 (control) and FIG. 3 (treated) and indicate the maximum EJC amplitude (Max), the distribution of 3rd quartiles (Q3), the median, the distribution of the 1st quartiles (Q1) and the distribution of the means. The data is from 16 animals from each treatment with at least 40 recording sites.

[2] = tested on: smooth muscle of mouse vas deferens; assay: Organ bath safety test: success rate of transmission after application of the chemicals; format: cell-based; conditions: 1.0% vol; for function of smooth muscle (success rate of transmission): evaluated over 40 minutes
Experimental: Safety data for the components of the combination of the invention have been obtained by applying the chemicals to smooth muscle in organ bath experiments. The mouse vas deferens was isolated and placed in an electrophysiological organ bath. Extracellular recording of transmitter release from sympathetic varicosities was recorded before and after both application of each of the chemicals CH, TH or ap. The effect (“success rate”) of each of the chemicals was evaluated over 40 minutes. Success rate was measured as (number of successful transmissions/number of nerve stimulations)×100. Following this measurement, the chemicals were washed out.

rats = conditions: cited from earlier work
humans = conditions: cited from earlier work

Row | Compound | effectiveness of the odour or odour combination from most effective to least effective (mean excitatory junction potentials, FIG. 1) [1] | function of smooth muscle (success rate of transmission) [2] | effect on the smooth muscle at the high concentration used [2] | resting period (rats) | hypnotic effect (humans)
1 | CCC/C=C\CO [cis-2-hexen-1-ol, reference compound] | cis-2-hexen-1-ol>trans-3-hexen-1-ol | – | – | – | –
2 | CC/C=C\CCO [cis-3-hexen-1-ol] | cis-3-hexen-1-ol>trans-2-hexenal | did not significantly affect | – | – | –
3 | CCC/C=C/CO [trans-2-hexen-1-ol, reference compound] | least effective | – | – | – | –
4 | CCC/C=C/C=O [trans-2-hexenal] | trans-2-hexenal>α-pinene | did not significantly affect | relaxed smooth muscle cells | – | –
5 | CC/C=C/CCO [trans-3-hexen-1-ol, reference compound] | trans-3-hexen-1-ol>trans-2-hexen-1-ol | – | – | – | –
6 | CC1=CCC2CC1C2(C)C (stereo not drawn) [α-pinene] | α-pinene>cis-2-hexen-1-ol | did not significantly affect | – | prolong the resting period | hypnotic effect
